Measurements published in PubChem BioAssay (NCI).
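96-well plates; 48 h exposure; 5 concentrations. Endpoints by linear interpolation between flanking doses. Not reached: highest tested concentration assigned. TGI denotes the concentration required for complete inhibition of growth.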

Tests used:
Experiment in all cases: growth of human tumour cells (NCI), 48 h
MOLT-4 leukemia = test system: MOLT-4 leukemia
HOP-92 NSCLC = test system: HOP-92 NSCLC
SF-268 CNS = test system: SF-268 CNS
OVCAR-5 ovarian = test system: OVCAR-5 ovarian
LXFL 529 NSCLC = test system: LXFL 529 NSCLC
KM12 colon = test system: KM12 colon
TK-10 renal = test system: TK-10 renal
HOP-62 NSCLC = test system: HOP-62 NSCLC
NCI-H460 lung = test system: NCI-H460 lung
U251 CNS = test system: U251 CNS
SK-MEL-2 melanoma = test system: SK-MEL-2 melanoma
HT29 colon = test system: HT29 colon
SK-MEL-28 melanoma = test system: SK-MEL-28 melanoma
SK-OV-3 ovarian = test system: SK-OV-3 ovarian
IGROV1 ovarian = test system: IGROV1 ovarian
XF 498 CNS = test system: XF 498 CNS
SNB-75 CNS = test system: SNB-75 CNS
K-562 leukemia = test system: K-562 leukemia
EKVX NSCLC = test system: EKVX NSCLC
KM20L2 colon = test system: KM20L2 colon
RPMI-8226 leukemia = test system: RPMI-8226 leukemia
HCT-116 colon = test system: HCT-116 colon
SF-539 CNS = test system: SF-539 CNS
MALME-3M melanoma = test system: MALME-3M melanoma
RXF 393 renal = test system: RXF 393 renal
NCI-H23 lung = test system: NCI-H23 lung
OVCAR-3 ovarian = test system: OVCAR-3 ovarian
SR leukemia = test system: SR leukemia
SNB-19 CNS = test system: SNB-19 CNS
OVCAR-4 ovarian = test system: OVCAR-4 ovarian
UACC-62 melanoma = test system: UACC-62 melanoma
HL-60(TB) leukemia = test system: HL-60(TB) leukemia
SW-620 colon = test system: SW-620 colon
DMS 114 small cell lung = test system: DMS 114 small cell lung
A549 NSCLC = test system: A549 NSCLC
UACC-257 melanoma = test system: UACC-257 melanoma
SF-295 CNS = test system: SF-295 CNS
M19-MEL melanoma = test system: M19-MEL melanoma
NCI-H522 lung = test system: NCI-H522 lung
M14 melanoma = test system: M14 melanoma
COLO 205 colon = test system: COLO 205 colon
SN12C renal = test system: SN12C renal
SK-MEL-5 melanoma = test system: SK-MEL-5 melanoma
OVCAR-8 ovarian = test system: OVCAR-8 ovarian
CCRF-CEM leukemia = test system: CCRF-CEM leukemia
UO-31 renal = test system: UO-31 renal
BT-549 breast = test system: BT-549 breast
NCI-H226 lung = test system: NCI-H226 lung
LOX IMVI melanoma = test system: LOX IMVI melanoma
T-47D breast = test system: T-47D breast
MCF7 breast = test system: MCF7 breast
HS 578T breast = test system: HS 578T breast
A498 renal = test system: A498 renal
MDA-MB-435 = test system: MDA-MB-435
PC-3 prostate = test system: PC-3 prostate
HCT-15 colon = test system: HCT-15 colon
ACHN renal = test system: ACHN renal
786-0 renal = test system: 786-0 renal
DU-145 prostate = test system: DU-145 prostate
MDA-MB-231 breast = test system: MDA-MB-231 breast
MDA-N = test system: MDA-N
CAKI-1 renal = test system: CAKI-1 renal
NCI/ADR-RES ovarian = test system: NCI/ADR-RES ovarian
HCC-2998 colon = test system: HCC-2998 colon

Work on `O=C1C(Cl)N(c2ccccc2[N+](=O)[O-])C1c1c[nH]c2ccccc12` (stereo not given) yielded a TGI (MOLT-4 leukemia) greater than 100 µM, a TGI (HOP-92 NSCLC) greater than 100 µM and a TGI (SF-268 CNS) greater than 100 µM. The TGI (OVCAR-5 ovarian) was 54.8 µM, the TGI (LXFL 529 NSCLC) was greater than 100 µM and the TGI (KM12 colon) was greater than 100 µM. For the same compound, the TGI (TK-10 renal) was greater than 100 µM, the TGI (HOP-62 NSCLC) was greater than 100 µM and the TGI (NCI-H460 lung) was greater than 100 µM. For the same compound, the TGI (U251 CNS) was greater than 100 µM, the TGI (SK-MEL-2 melanoma) was greater than 100 µM and the TGI (HT29 colon) was greater than 100 µM. For the same compound, the TGI (SK-MEL-28 melanoma) was greater than 100 µM, the TGI (SK-OV-3 ovarian) was greater than 100 µM and the TGI (IGROV1 ovarian) was greater than 100 µM. For the same compound, the TGI (XF 498 CNS) was greater than 100 µM, the TGI (SNB-75 CNS) was greater than 100 µM and the TGI (K-562 leukemia) was greater than 100 µM. For the same compound, the TGI (EKVX NSCLC) was greater than 100 µM, the TGI (KM20L2 colon) was greater than 100 µM and the TGI (RPMI-8226 leukemia) was greater than 100 µM. The TGI (HCT-116 colon) was greater than 100 µM, the TGI (SF-539 CNS) was greater than 100 µM and the TGI (MALME-3M melanoma) was greater than 100 µM. For the same compound, the TGI (RXF 393 renal) was greater than 100 µM, the TGI (NCI-H23 lung) was greater than 100 µM and the TGI (OVCAR-3 ovarian) was greater than 100 µM. The TGI (SR leukemia) was greater than 100 µM, the TGI (SNB-19 CNS) was greater than 100 µM and the TGI (OVCAR-4 ovarian) was greater than 100 µM. For the same compound, the TGI (UACC-62 melanoma) was greater than 100 µM, the TGI (HL-60(TB) leukemia) was greater than 100 µM and the TGI (SW-620 colon) was greater than 100 µM. It also gave a TGI (DMS 114 small cell lung) greater than 100 µM, a TGI (A549 NSCLC) greater than 100 µM and a TGI (UACC-257 melanoma) greater than 100 µM. For the same compound, the TGI (SF-295 CNS) was greater than 100 µM, the TGI (M19-MEL melanoma) was greater than 100 µM and the TGI (NCI-H522 lung) was greater than 100 µM. It also gave a TGI (M14 melanoma) greater than 100 µM, a TGI (COLO 205 colon) greater than 100 µM and a TGI (SN12C renal) greater than 100 µM. It also gave a TGI (SK-MEL-5 melanoma) greater than 100 µM, a TGI (OVCAR-8 ovarian) greater than 100 µM and a TGI (CCRF-CEM leukemia) greater than 100 µM. For the same compound, the TGI (UO-31 renal) was greater than 100 µM.

Work on `O=C(Nc1ccccc1C(=O)NCCCO)/C(=C/c1ccccc1O)NC(=O)c1ccccc1` yielded a TGI (MOLT-4 leukemia) greater than 100 µM, a TGI (HOP-92 NSCLC) greater than 100 µM and a TGI (SF-268 CNS) greater than 100 µM. It also gave a TGI (BT-549 breast) of 55.7 µM, a TGI (OVCAR-5 ovarian) greater than 100 µM and a TGI (NCI-H226 lung) greater than 100 µM. The TGI (LOX IMVI melanoma) was greater than 100 µM, the TGI (T-47D breast) was greater than 100 µM and the TGI (KM12 colon) was greater than 100 µM. The TGI (MCF7 breast) was greater than 100 µM, the TGI (TK-10 renal) was greater than 100 µM and the TGI (HOP-62 NSCLC) was greater than 56.5 µM. It also gave a TGI (NCI-H460 lung) greater than 100 µM, a TGI (U251 CNS) greater than 81.6 µM and a TGI (SK-MEL-2 melanoma) greater than 100 µM. It also gave a TGI (HT29 colon) greater than 100 µM, a TGI (SK-MEL-28 melanoma) greater than 100 µM and a TGI (SK-OV-3 ovarian) greater than 100 µM. The TGI (IGROV1 ovarian) was greater than 100 µM, the TGI (HS 578T breast) was 77.6 µM and the TGI (SNB-75 CNS) was greater than 83.9 µM. It also gave a TGI (A498 renal) greater than 100 µM, a TGI (K-562 leukemia) greater than 100 µM and a TGI (MDA-MB-435) greater than 100 µM. It also gave a TGI (EKVX NSCLC) greater than 100 µM, a TGI (PC-3 prostate) greater than 100 µM and a TGI (HCT-15 colon) greater than 100 µM. It also gave a TGI (RPMI-8226 leukemia) greater than 100 µM, a TGI (ACHN renal) of 97.4 µM and a TGI (786-0 renal) greater than 89.9 µM. It also gave a TGI (HCT-116 colon) greater than 75.8 µM, a TGI (SF-539 CNS) greater than 63.2 µM and a TGI (MALME-3M melanoma) greater than 100 µM. For the same compound, the TGI (RXF 393 renal) was greater than 86.8 µM, the TGI (DU-145 prostate) was greater than 100 µM and the TGI (NCI-H23 lung) was greater than 94.5 µM. For the same compound, the TGI (OVCAR-3 ovarian) was greater than 100 µM, the TGI (SR leukemia) was greater than 100 µM and the TGI (SNB-19 CNS) was 40.8 µM. For the same compound, the TGI (OVCAR-4 ovarian) was greater than 100 µM, the TGI (UACC-62 melanoma) was 60 µM and the TGI (HL-60(TB) leukemia) was greater than 100 µM. It also gave a TGI (SW-620 colon) greater than 100 µM, a TGI (A549 NSCLC) greater than 100 µM and a TGI (UACC-257 melanoma) greater than 100 µM. For the same compound, the TGI (SF-295 CNS) was greater than 75.8 µM, the TGI (MDA-MB-231 breast) was greater than 59.3 µM and the TGI (NCI-H522 lung) was greater than 100 µM. For the same compound, the TGI (MDA-N) was greater than 100 µM, the TGI (M14 melanoma) was greater than 100 µM and the TGI (COLO 205 colon) was greater than 100 µM. The TGI (SN12C renal) was greater than 100 µM, the TGI (CAKI-1 renal) was greater than 100 µM and the TGI (SK-MEL-5 melanoma) was greater than 100 µM. It also gave a TGI (NCI/ADR-RES ovarian) of 69.1 µM, a TGI (OVCAR-8 ovarian) greater than 64.6 µM and a TGI (CCRF-CEM leukemia) greater than 100 µM. It also gave a TGI (HCC-2998 colon) greater than 100 µM and a TGI (UO-31 renal) greater than 31.6 µM.
